# Laboratory results: patent US10711000B2 (Fronthera U.S. Pharmaceuticals LLC, priority 2018, dated 2020)
# Columns and labels:
# Autotaxin = target: T1, Autotaxin (Rattus norvegicus, UniProt Q64610); assay: Pharmacodynamics: LPA 18:2 inhibition in plasma of SD rats after oral dose; details: single oral dose, LPA18:2 inhibition vs plasma concentration of compound, read-out: In vivo rat IC50 (LPA 18:2) (converted)
# T1 construct: from tissue; host or cells: SD rats in vivo; plasma sampled after a single oral dose
# Excerpt: The pharmacokinetics and pharmacodynamics of test compounds after a single oral dose were investigated in SD rats, Beagle dog and Cynomolgus monkey. SD Rats (200-250 g) were purchased from Beijing Vital River Laboratory Animal Technology Co., Ltd. Male Beagle Dog, 6-9 kg, were purchased from Beijing Mashall. Male Cynomolgus monkeys, 3-5 kg, were purchased from Suzhou Xishan Zhongke Drugs Research and Development Co., Ltd. Following arrival, the animals were acclimated for 7 days in individual cages maintained at ambient temperature, 34 to 68% relative humidity, and 12-h light/dark cycles. Just prior to dose administration the rats were fasted overnight with free access to water. Animals were given 10 mL/kg of formulated compound in 0.5% methylcellulose (MC) by oral gavage, and the animals were fed four hours after dosing. The animals were manually restrained at the designated time points (pre-dose, 0.5, 1, 3, 6, 9, 12, and 24 h post-dose) to collect blood. Approximately 120 μL of blood was collected via orbital sinus into K2EDTA tubes. The blood samples were centrifuged at 5000 rpm for 10 min at 4° C. to obtain plasma samples.
# Autotaxin is a secreted phosphodiesterase that converts lysophosphatidylcholine (LPC) into lysophosphatidic acid (LPA), and LPA 18:2 formation was used to evaluate the efficacy of autotaxin inhibitors. Therefore, the LPA 18:2 formation in response to drug administration was analyzed in each time point to assess the pharmacodynamics of test compounds. To determine the LPA18:2 concentration in study plasma, a 10× calibration standard of LPA 18:2 were prepared by serial dilution in butyl alcohol: 20000, 10000, 5000, 2000, 1000, 500, 200, 100, 50, 20, and 10 ng/mL. 3 μL of calibration standard solution was added into 27.0 μL of blank plasma in 1.5-mL microcentrifuge tubes to generate 1× calibration standards. The 30.0 μL of standards or study plasma was added into 1.5-mL microcentrifuge tubes. 200 μL of butyl alcohol (containing 25.0 ng/mL LPA17:0 for internal control) was added into each 1.5-mL microcentrifuge tube containing study plasma or calibration standards. After vortexing for 1 minute and centrifuging at 10000 rpm for 10 min, 180 μL of supernatant was transferred into a 96-well plate and the LPA18:2 concentration in the plasma was quantitated using LC/MS/MS together with standards. Briefly, 8 μL of the solutions were injected for LC-MS/MS analysis using an ACQUITY UPLC BEH C18 column (2.1×50 mm, 1.7 μm) with mobile phase A [20 mM NH4OAC in water (0.1% FA)] and phase B [5 mM NH4OAC in water/0.2% FA in ACN=5:95]. Mass spectrometer parameters optimization for LPA18:2 were performed by infusing standard diluted at 1 μg/mL in butyl Alcohol directly in the ionization source, at a flow of 10 μL/min. Deprotonated molecular ion at m/z 433.2 ([M−H]−) for LPA18:2, and abundant product ion at m/z 152.8 for LPA18:2 were obtained. Quantitative data were acquired in multiple reaction monitoring (MRM) negative electrospray ionization mode
# The percentage of LPA18:2 inhibition was plotted against the corresponding concentration of compound and the IC50 was calculated through non-linear regression fitting.
# CYP 2C9 = target: T2, CYP 2C9 (Homo sapiens, UniProt P11712); assay: CYP inhibition in human liver microsome; type: in vitro ADME; details: human liver microsomes, substrate diclofenac (5 μM); compounds diluted 1:3 starting at 50 μM; read-out: IC50 in CYP isozyme 2C9
# T2 construct: from tissue; host or cells: human liver microsomes
# Experimental: (§1) Test compounds were evaluated for CYP inhibition using human liver microsomes (HLM). Test compounds were 1:3 serially diluted starting at 50 μM to generate 7 different concentrations. After incubation of diluted test compounds with HLM, a substrate cocktail composed of phenacetin (10 μM), amodiaquine (2 μM), diclofenac (5 μM), s-mephenytoin (30 μM), dextromethorphan (5 μM), and midazolam (2 μM) was added to check the remaining CYP activity for CYP 1A2, 2C8, 2C9, 2C19, 2D6 and 3A4. The CYP activity was measured by detecting the peak area of individual metabolites of know CYP substrates using LC/MS/MS. A percentage of inhibition of CYP was calculated at each final concentration of test compound, through which an IC50 was fitted to represent the inhibition potential.
# CYP 2D6 = target: T3, CYP 2D6 (Homo sapiens, UniProt P10635); assay: CYP inhibition in human liver microsome; type: in vitro ADME; details: human liver microsomes, substrate dextromethorphan (5 μM); compounds diluted 1:3 starting at 50 μM; read-out: IC50 in CYP isozyme 2D6
# T3 construct: from tissue; host or cells: human liver microsomes
# Experimental: as §1
# CYP 3A4 = target: T4, CYP 3A4 (Homo sapiens, UniProt P08684); assay: CYP inhibition in human liver microsome; type: in vitro ADME; details: human liver microsomes, substrate midazolam (2 μM); compounds diluted 1:3 starting at 50 μM; read-out: IC50 in CYP isozyme 3A4
# T4 construct: from tissue; host or cells: human liver microsomes
# Experimental: as §1
# CYP 1A2 = target: T5, CYP 1A2 (Homo sapiens, UniProt P05177); assay: CYP inhibition in human liver microsome; type: in vitro ADME; details: human liver microsomes, substrate phenacetin (10 μM); compounds diluted 1:3 starting at 50 μM; read-out: IC50 in CYP isozyme 1A2
# T5 construct: from tissue; host or cells: human liver microsomes
# T5 sequence (P05177 1-516): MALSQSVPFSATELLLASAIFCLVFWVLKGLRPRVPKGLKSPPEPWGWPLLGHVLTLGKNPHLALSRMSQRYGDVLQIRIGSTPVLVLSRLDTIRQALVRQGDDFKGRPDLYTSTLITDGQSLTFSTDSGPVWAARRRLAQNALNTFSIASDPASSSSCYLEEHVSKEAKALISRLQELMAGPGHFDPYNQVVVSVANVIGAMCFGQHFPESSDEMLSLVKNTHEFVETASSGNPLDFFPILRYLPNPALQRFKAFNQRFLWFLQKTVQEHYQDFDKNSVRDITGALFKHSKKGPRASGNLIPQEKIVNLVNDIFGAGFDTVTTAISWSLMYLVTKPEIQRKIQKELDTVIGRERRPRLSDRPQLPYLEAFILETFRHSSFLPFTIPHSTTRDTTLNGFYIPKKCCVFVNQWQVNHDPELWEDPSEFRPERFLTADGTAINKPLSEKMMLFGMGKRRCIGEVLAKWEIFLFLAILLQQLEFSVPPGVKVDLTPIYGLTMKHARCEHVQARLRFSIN
# Experimental: as §1
# CYP 2C19 = target: T6, CYP 2C19 (Homo sapiens, UniProt P33261); assay: CYP inhibition in human liver microsome; type: in vitro ADME; details: human liver microsomes, substrate s-mephenytoin (30 μM); compounds diluted 1:3 starting at 50 μM; read-out: IC50 in CYP isozyme 2C19
# T6 construct: from tissue; host or cells: human liver microsomes
# Experimental: as §1
# T4 sequence (P08684 whole entry): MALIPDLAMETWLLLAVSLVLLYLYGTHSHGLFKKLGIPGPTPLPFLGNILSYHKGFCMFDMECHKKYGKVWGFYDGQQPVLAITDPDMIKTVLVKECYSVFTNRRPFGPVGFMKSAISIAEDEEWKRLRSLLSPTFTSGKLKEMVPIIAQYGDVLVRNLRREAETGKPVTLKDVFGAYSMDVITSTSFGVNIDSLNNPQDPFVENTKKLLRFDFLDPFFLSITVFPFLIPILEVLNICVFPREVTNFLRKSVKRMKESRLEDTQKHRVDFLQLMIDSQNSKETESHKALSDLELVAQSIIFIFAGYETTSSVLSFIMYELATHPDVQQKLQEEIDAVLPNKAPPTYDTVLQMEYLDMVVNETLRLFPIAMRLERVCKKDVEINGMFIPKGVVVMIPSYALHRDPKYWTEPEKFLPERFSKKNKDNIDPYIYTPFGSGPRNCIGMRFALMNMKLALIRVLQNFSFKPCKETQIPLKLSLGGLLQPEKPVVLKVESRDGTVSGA
# T3 sequence (P10635 whole entry): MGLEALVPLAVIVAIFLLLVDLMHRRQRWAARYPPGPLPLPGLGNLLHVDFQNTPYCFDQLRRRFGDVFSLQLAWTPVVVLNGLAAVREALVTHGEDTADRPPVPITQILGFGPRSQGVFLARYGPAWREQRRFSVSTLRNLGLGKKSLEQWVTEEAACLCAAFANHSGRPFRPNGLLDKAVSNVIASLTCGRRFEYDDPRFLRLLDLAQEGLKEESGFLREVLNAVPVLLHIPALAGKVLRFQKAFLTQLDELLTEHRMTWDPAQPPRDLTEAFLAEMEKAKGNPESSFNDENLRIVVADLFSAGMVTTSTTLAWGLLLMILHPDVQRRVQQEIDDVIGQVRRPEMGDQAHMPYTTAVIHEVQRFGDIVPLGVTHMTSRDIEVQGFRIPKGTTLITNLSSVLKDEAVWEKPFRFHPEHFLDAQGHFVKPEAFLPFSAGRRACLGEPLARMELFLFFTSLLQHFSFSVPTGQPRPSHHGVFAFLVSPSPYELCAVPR
# T2 sequence (P11712 whole entry): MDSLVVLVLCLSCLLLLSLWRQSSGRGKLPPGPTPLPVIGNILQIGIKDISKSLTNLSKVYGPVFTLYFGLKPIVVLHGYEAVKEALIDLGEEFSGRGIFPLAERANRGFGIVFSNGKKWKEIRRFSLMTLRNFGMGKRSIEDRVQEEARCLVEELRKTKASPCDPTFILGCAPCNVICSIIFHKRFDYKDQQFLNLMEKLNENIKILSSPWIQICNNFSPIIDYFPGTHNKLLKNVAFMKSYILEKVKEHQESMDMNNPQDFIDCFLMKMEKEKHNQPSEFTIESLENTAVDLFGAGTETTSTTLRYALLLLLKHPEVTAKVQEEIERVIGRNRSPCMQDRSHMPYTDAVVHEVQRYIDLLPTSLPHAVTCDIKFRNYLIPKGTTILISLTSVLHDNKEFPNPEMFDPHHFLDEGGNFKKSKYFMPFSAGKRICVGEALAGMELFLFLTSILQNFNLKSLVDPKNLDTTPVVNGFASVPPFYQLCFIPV
# T6 sequence (P33261 whole entry): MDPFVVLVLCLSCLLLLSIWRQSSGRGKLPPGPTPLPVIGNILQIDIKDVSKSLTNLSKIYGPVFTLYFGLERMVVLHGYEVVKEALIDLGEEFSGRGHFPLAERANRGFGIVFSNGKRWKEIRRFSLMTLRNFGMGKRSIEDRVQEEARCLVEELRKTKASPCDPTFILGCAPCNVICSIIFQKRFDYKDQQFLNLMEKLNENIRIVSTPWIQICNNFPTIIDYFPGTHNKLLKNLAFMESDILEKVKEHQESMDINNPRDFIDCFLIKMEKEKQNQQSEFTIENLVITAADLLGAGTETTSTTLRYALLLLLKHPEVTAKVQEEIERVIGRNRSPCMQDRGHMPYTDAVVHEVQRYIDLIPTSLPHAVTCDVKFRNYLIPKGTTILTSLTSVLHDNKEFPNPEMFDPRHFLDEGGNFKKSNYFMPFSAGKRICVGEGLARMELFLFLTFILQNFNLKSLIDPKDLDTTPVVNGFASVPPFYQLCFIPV
SMILES,IC50 (Autotaxin) [µM],IC50 (CYP 2C9) [µM],IC50 (CYP 2D6) [µM],IC50 (CYP 3A4) [µM],IC50 (CYP 1A2) [µM],IC50 (CYP 2C19) [µM]
"CCn1nc2ncc(N3CC4(CN(C(=O)C5CCOCC5)C4)C3)cc2c1N(C)c1nc(-c2ccc(F)cc2)c(C#N)s1 [Compound 118, 2-((2-ethyl-5-(6-(tetrahydro-2H-pyran-4-carbonyl)-2,6-diazaspiro[3.3]heptan-2-yl)-2H-pyrazolo[3,4-b]pyridin-3-yl)(methyl)amino)-4-(4-fluorophenyl)thiazole-5-carbonitrile]",0.0125,15.9,> 50,> 50,> 50,> 50
CCc1nc2c(C)cc(N3CCN(CC(=O)N4CC(O)C4)CC3)cn2c1N(C)c1nc(-c2ccc(F)cc2)c(C#N)s1 [GLPG1690],0.0483,16.7,> 50,13.5,> 50,40.2
"CCc1nn2cc(F)c(N3CC4(CN(C(=O)[C@H]5CCOC5)C4)C3)cc2c1N(C)c1nc(-c2ccc(F)cc2)c(C#N)s1 [Example 102, 2-[[2-ethyl-6-fluoro-5-[2-[(3S)-tetrahydrofuran-3-carbonyl]-2,6-diazaspiro[3.3]heptan-6-yl]pyrazolo[1,5-a]pyridin-3-yl]-methyl-amino]-4-(4-fluorophenyl)thiazole-5-carbonitrile]",0.00885,5.69,> 50,> 50,13.9,11.9
"CCc1nn2cc(F)c(N3CCN(CC(=O)N4CC(O)C4)CC3)cc2c1N(C)c1nc(-c2ccc(F)cc2)c(C#N)s1 [Example 101, 2-[[2-ethyl-6-fluoro-5-[4-[2-(3-hydroxyazetidin-1-yl)-2-oxo-ethyl]piperazin-1-yl]pyrazolo[1,5-a]pyridin-3-yl]-methyl-amino]-4-(4-fluorophenyl)thiazole-5-carbonitrile]",0.00864,17.3,> 50,> 50,> 50,45.5
